Source: PMC5748281 (ACS Omega, 2017)
“Also recorded” adds a separate entry of the source. Like-named read-outs stand apart in the source and are kept apart here.

Columns and labels:
yeast = settings: aniline metabolites in yeast; cited from earlier work
yeast cells = settings: cited from earlier work
S. cerevisiae [1] = test: DEL; settings: IC80 concentration; for Induction of deletion, fold increase over untreated control, Obsd: 17 h, DEL(URA3) strain, average of three samples; for deletion formation / genotoxicity in words: DEL assay
S. cerevisiae [2] = test: Growth inhibition assay, 96-well microplate format; type: cell-based, Saccharomyces cerevisiae; settings: for IC80: read-out: log 1/IC80 Obsd (converted)
Water solubility = type: physicochemical; settings: water / assay medium
[3] = system: DNA repair null mutant yeast strains; type: cell-based, Saccharomyces cerevisiae
[4] = Saccharomyces cerevisiae, 17 h, read-out: log 1/IC50 Obsd (converted)

Structure (SMILES)	log 1/ICFR50 Obsd (yeast cells)	IC50 (S. cerevisiae [2]; [4]) [mM]	IC80 (S. cerevisiae [2]; Saccharomyces cerevisiae, 17 h) [mM]	further results
CC(=O)Nc1ccc(O)cc1 [4-acetamidophenol]	–	–	–	increase in deletion frequencies in words (yeast): did not show a significant increase
Oc1ccccc1Br [2-Br]	2.08	–	–	–
Oc1c(F)c(F)c(F)c(F)c1F [2,3,4,5,6-F5]	2.05	–	–	–
Cc1ccc(O)c(N)c1 [2-NH2,4-CH3]	1.07	–	–	–
Oc1ccccc1O [2-OH (catechol), catechol]	–	2.24	3.39	Induction of deletion, fold increase over untreated control, Obsd (S. cerevisiae [1]): 2.26 fold
N#Cc1ccc(O)cc1 [4-CN, 4-cyanophenol]	–	3.02	5.5	Induction of deletion, fold increase over untreated control, Obsd (S. cerevisiae [1]): 1.25 fold
Oc1ccc(Cl)cc1 [4-Cl, 4-chlorophenol]	2.07	1.35	1.66	Induction of deletion, fold increase over untreated control, Obsd (S. cerevisiae [1]): 1.85 fold
O=[N+]([O-])c1ccc(O)cc1 [4-NO2, 4-nitrophenol]	2.85	0.603	0.813	–
COc1ccc(O)cc1C(C)(C)C [3-C(CH3)3,4-OCH3, 3-tert-butyl-4-methoxy-phenol]	–	0.38	0.49	deletion formation / genotoxicity in words (S. cerevisiae [1]; listed as BHA-3): do not increase the deletion formation; Induction of deletion, fold increase over untreated control, Obsd (S. cerevisiae [1]): 1.17 fold
COc1ccc(O)cc1 [4-OCH3, 4-methoxyphenol]	–	10.5	12.3	Induction of deletion, fold increase over untreated control, Obsd (S. cerevisiae [1]): 2.01 fold
Oc1c(Cl)c(Cl)c(Cl)c(Cl)c1Cl [2,3,4,5,6-Cl5]	3.96	–	–	–
Oc1cc(Cl)c(Cl)c(Cl)c1 [3,4,5-Cl3]	3.3	–	–	–
CCCCCCCCCc1ccc(O)cc1 [4-(CH2)8CH3, 4-nonylphenol]	–	0.02	0.0398	Induction of deletion, fold increase over untreated control, Obsd (S. cerevisiae [1]): 2.58 fold; IC50 (S. cerevisiae [2]; Saccharomyces cerevisiae, 17 h): 0.02 mM
Oc1cccc(Cl)c1Cl [2,3-Cl2]	2.68	–	–	–
CCCCCCCCCCCCc1ccc(O)cc1 [4-dodecylphenol]	–	–	–	solubility in words (Water solubility): poor water solubility; inhibition at 350 µM (S. cerevisiae [2]; Saccharomyces cerevisiae, read-out: growth inhibition): 40%
COc1ccc(O)c(C(C)(C)C)c1 [2-C(CH3)3,4-OCH3, 2-tert-butyl-4-methoxy-phenol]	–	0.288	0.407	Induction of deletion, fold increase over untreated control, Obsd (S. cerevisiae [1]): 2.57 fold; Induction of deletion, fold increase over untreated control, Obsd (S. cerevisiae [1]; listed as BHA-2): greater than 2 fold
COc1cc(O)cc(OC)c1 [3,5-(OCH3)2]	1.54	–	–	–
Oc1ccc(Cl)cc1Cl [2,4-Cl2]	2.77	–	–	–
O=C(O)c1ccc(O)cc1 [4-COOH]	1.75	–	–	–
Oc1ccc(Br)cc1 [4-Br, 4-bromophenol]	2.4	0.832	1.1	–

Structure (SMILES)	log 1/ICFR50 Obsd (yeast cells)	IC50 (S. cerevisiae [2]; [4]) [mM]	IC80 (S. cerevisiae [2]; Saccharomyces cerevisiae, 17 h) [mM]	further results
Oc1cc(Cl)c(Cl)c(Cl)c1Cl [2,3,4,5-Cl4]	3.92	–	–	–
Cc1cc(O)cc(C)c1Cl [4-Cl, 3,5-(CH3)2]	2.96	–	–	–
Oc1c(Cl)cccc1Cl [2,6-Cl2]	2.52	–	–	–
Cc1ccc(O)c([N+](=O)[O-])c1 [4-CH3,2-NO2]	2.1	–	–	–
CCOc1ccc(O)cc1 [4-OC2H5, 4-ethoxyphenol]	–	6.76	7.94	–
Oc1cccc(C(F)(F)F)c1 [3-CF3]	2.31	–	–	–
CCCCOc1ccc(O)cc1 [4-OC4H9, 4-butoxyphenol]	–	0.525	0.692	–
Oc1ccccc1 [4-H, phenol]	1.17	11	14.1	Induction of deletion, fold increase over untreated control, Obsd (S. cerevisiae [1]): 2.27 fold
CCCOc1ccc(O)cc1 [4-OC3H7, 4-propoxyphenol]	–	1.82	2.24	–
Oc1ccc(F)cc1 [4-F, 4-fluorophenol]	–	4.79	6.17	Induction of deletion, fold increase over untreated control, Obsd (S. cerevisiae [1]): 2.03 fold
Oc1c(I)cc(I)cc1I [2,4,6-(I)3]	4.3	–	–	–
Cc1cc(C(C)(C)C)c(O)c(C(C)(C)C)c1 [BHT, 2,6-di-tert-butyl-4-methyl-phenol]	–	0.132	0.251	growth phenotype of DNA repair null mutant strains [3]: unresponsive; also recorded: negligible; also recorded: did not cause clear growth defects
CC(C)(C)c1cc(O)cc(C(C)(C)C)c1 [3,5-(C(CH3)3)2]	3.96	–	–	–
CCCCCc1ccc(O)cc1 [4-(CH2)4CH3, 4-pentylphenol]	–	0.0891	0.11	–
Oc1ccc(O)cc1 [4-OH, hydroquinone]	–	27.5	40.7	Induction of deletion, fold increase over untreated control, Obsd (S. cerevisiae [1]): 2.25 fold
Oc1c(Cl)cc(Cl)cc1Cl [2,4,6-Cl3]	3.28	–	–	–
CC(C)(c1ccc(O)cc1)c1ccc(O)cc1 [bisphenol-A, bisphenol A]	–	0.676	0.813	–
Oc1ccc(I)cc1 [4-I]	2.4	–	–	–
COc1ccc(O)c(C(C)(C)C)c1 [BHA, butylated hydroxy anisole]	–	–	–	deletion formation / genotoxicity in words (S. cerevisiae [1]): significant increase in deletion events; growth phenotype of DNA repair null mutant strains [3]: growth defects in most of the DNA repair null mutant strains tested; also recorded: some level of growth defect; growth phenotype of Δrad4 strain [3]: more resistant; growth phenotype of Δrad14 strain [3]: increased sensitivity; log 1/IC80 Obsd (S. cerevisiae [2]; 80% inhibition of yeast growth, 17 h, 30 °C, OD 655 nm): 3.37; log 1/IC50 Obsd (S. cerevisiae [2]; inhibition of yeast growth, 17 h, 30 °C, OD 655 nm): 3.72
Oc1cc(Cl)c(Cl)cc1Cl [2,4,5-Cl3]	3.26	–	–	–
